Experimental findings from the NIST ThermoML archive (doi:10.1016/j.jct.2018.01.008) are described below.

For data set [1] the following is noted: for Normal melting temperature: DTA.
The nature of data set [2]: Molar enthalpy of transition or fusion. Conditions: DSC.
A short description of data set [3]: xn = mol fraction of the nth substance listed. Conditions: 298.15 K, 77 kPa, Crystal of unknown type, Transient plane heat source method.

Numbers after ± are expanded uncertainties.

Take `O=C(O)CCCCCCCCC(=O)O` [1,10-decanedioic acid]: in data set [1] (Crystal), the Normal melting temperature came out at 131.8 ± 2 °C. The “Molar enthalpy of transition or fusion” value in data set [2] (Crystal) was 10.6 ± 1.08 kcal/mol.

`CCCCCCCCCCCCCCCCCC(=O)O` [octadecanoic acid]: the Normal melting temperature in data set [1] (Crystal) was found to be 69 ± 2 °C. Besides, the “Molar enthalpy of transition or fusion” value in data set [2] (Crystal) amounted to 13.7 ± 1.39 kcal/mol.

As for `O=C(O)CCCCC(=O)O` [1,6-hexanedioic acid], in data set [1] (Crystal), the Normal melting temperature was determined as 150.17 ± 2 °C. Moreover, in data set [2] (Crystal), the “Molar enthalpy of transition or fusion” value came to 8.57 ± 0.884 kcal/mol.

For the molecule `CCCCCCCCCCCCCCCCCC(=O)O` [octadecanoic acid] + O=C(O)CCCCC(=O)O, the thermal conductivity in data set [3] (x1 = 0.962) was 0.1439 ± 0.011 W/m/K.

For `O=C(O)CCCCCCCCC(=O)O` [1,10-decanedioic acid] + CCCCCCCCCCCCCCCCCC(=O)O, in data set [3] (x2 = 0.945), the thermal conductivity worked out at 0.1802 ± 0.013 W/m/K.

For the molecule `O=C(O)CCCCCCC(=O)O` [1,8-octanedioic acid] + CCCCCCCCCCCCCCCCCC(=O)O, the thermal conductivity in data set [3] (x2 = 0.936) is listed as 0.172 ± 0.013 W/m/K.

Regarding `O=C(O)CCCCCCC(=O)O` [1,8-octanedioic acid], the Normal melting temperature in data set [1] (Crystal 1) was determined as 140.63 ± 2 °C. In addition, in data set [1] (Crystal 2, DSC), the Triple point temperature turned out to be 405.59 ± 2.1 K. Moreover, the “Molar enthalpy of transition or fusion” value is 6.94 ± 0.717 kcal/mol in data set [2] (Crystal 1) and 2.07 ± 0.215 kcal/mol in data set [2] (Crystal 2).
